Experimental data published in ChEMBL document CHEMBL1152457, “Antimicrobial drug resistance of Salmonella enterica serovar typhi in asia and molecular mechanism of reduced susceptibility to the fluoroquinolones” (2007).
Values after ≈ are worked out from the molar mass of the structure shown.

Legend:
Format in all cases: functional, Salmonella enterica subsp. enterica serovar Typhi
[1] = test system: Salmonella enterica subsp. enterica; assay: Antimicrobial activity against multidrug-resistant Salmonella enterica Serovar Typhi isolate DT48 harboring DNA gyrase A S83F mutation by disk diffusion method
[2] = test system: Salmonella enterica subsp. enterica; assay: Antimicrobial activity against Salmonella enterica Serovar Typhi isolate BL 21801 harboring DNA gyrase A S83F mutation by disk diffusion method in presence of plasmid mediated quinolone-resistant gene qnrA and qnrS
[3] = test system: Salmonella enterica subsp. enterica; assay: Antimicrobial activity against multidrug-resistant Salmonella enterica Serovar Typhi isolate DT60 harboring DNA gyrase A S83F mutation by disk diffusion method
[4] = test system: Salmonella enterica subsp. enterica; assay: Antimicrobial activity against multidrug-resistant Salmonella enterica Serovar Typhi isolate CT118 harboring DNA gyrase A S83F mutation by disk diffusion method in presence of plasmid mediated quinolone-resistant gene qnrA and qnrS
[5] = test system: Salmonella enterica subsp. enterica; assay: Antimicrobial activity against Salmonella enterica Serovar Typhi isolate AG182 harboring DNA gyrase A S83F mutation by disk diffusion method
[6] = test system: Salmonella enterica subsp. enterica; assay: Antimicrobial activity against multidrug-resistant Salmonella enterica Serovar Typhi isolate DT37 harboring DNA gyrase A S83F mutation by disk diffusion method
[7] = test system: Salmonella enterica subsp. enterica; assay: Antimicrobial activity against multidrug-resistant Salmonella enterica Serovar Typhi isolate AG168 harboring DNA gyrase A S83F mutation by disk diffusion method
[8] = test system: Salmonella enterica subsp. enterica; assay: Antimicrobial activity against multidrug-resistant Salmonella enterica Serovar Typhi isolate AG6 harboring DNA gyrase A S83F mutation by disk diffusion method
[9] = test system: Salmonella enterica subsp. enterica; assay: Antimicrobial activity against multidrug-resistant Salmonella enterica Serovar Typhi isolate ipt 32 harboring DNA gyrase A S83F mutation by disk diffusion method
[10] = test system: Salmonella enterica subsp. enterica; assay: Antimicrobial activity against Salmonella enterica Serovar Typhi isolate CT145 harboring DNA gyrase A S83F mutation by disk diffusion method in presence of plasmid mediated quinolone-resistant gene qnrA and qnrS
[11] = test system: Salmonella enterica subsp. enterica; assay: Antimicrobial activity against multidrug-resistant Salmonella enterica Serovar Typhi isolate DT3 harboring DNA gyrase A S83F mutation by disk diffusion method in presence of plasmid mediated quinolone-resistant gene qnrA and qnrS
[12] = test system: Salmonella enterica subsp. enterica; assay: Antimicrobial activity against multidrug-resistant Salmonella enterica Serovar Typhi isolate BL 21095 harboring DNA gyrase A S83F mutation by disk diffusion method in presence of plasmid mediated quinolone-resistant gene qnrA and qnrS
[13] = test system: Salmonella enterica subsp. enterica; assay: Antimicrobial activity against multidrug-resistant Salmonella enterica Serovar Typhi isolate DT9 harboring DNA gyrase A S83F mutation by disk diffusion method
[14] = test system: Salmonella enterica subsp. enterica; assay: Antimicrobial activity against Salmonella enterica Serovar Typhi isolate nar 108 harboring DNA gyrase A S83F mutation by disk diffusion method in presence of plasmid mediated quinolone-resistant gene qnrA and qnrS
[15] = test system: Salmonella enterica subsp. enterica; assay: Antimicrobial activity against multidrug-resistant Salmonella enterica Serovar Typhi isolate ipt 33 harboring DNA gyrase A S83F mutation by disk diffusion method
[16] = test system: Salmonella enterica subsp. enterica; assay: Antimicrobial activity against multidrug-resistant Salmonella enterica Serovar Typhi isolate nar 51 harboring DNA gyrase A S83F mutation by disk diffusion method
[17] = test system: Salmonella enterica subsp. enterica; assay: Antimicrobial activity against multidrug-resistant Salmonella enterica Serovar Typhi isolate DT49 harboring DNA gyrase A S83F mutation by disk diffusion method
[18] = test system: Salmonella enterica subsp. enterica; assay: Antimicrobial activity against Salmonella enterica Serovar Typhi isolate D43 harboring DNA gyrase A S83Y mutation by disk diffusion method in presence of plasmid mediated quinolone-resistant gene qnrA and qnrS
[19] = test system: Salmonella enterica subsp. enterica; assay: Antimicrobial activity against multidrug-resistant Salmonella enterica Serovar Typhi isolate DT15 harboring DNA gyrase A S83F mutation by disk diffusion method
[20] = test system: Salmonella enterica subsp. enterica; assay: Antimicrobial activity against Salmonella enterica Serovar Typhi isolate AG3 harboring DNA gyrase A S83F mutation by disk diffusion method
[21] = test system: Salmonella enterica subsp. enterica; assay: Antimicrobial activity against multidrug-resistant Salmonella enterica Serovar Typhi isolate nar 104 harboring DNA gyrase A S83F mutation by disk diffusion method in presence of plasmid mediated quinolone-resistant gene qnrA and qnrS
[22] = test system: Salmonella enterica subsp. enterica; assay: Antimicrobial activity against multidrug-resistant Salmonella enterica Serovar Typhi isolate nar 28 harboring DNA gyrase A S83F mutation by disk diffusion method
[23] = test system: Salmonella enterica subsp. enterica; assay: Antimicrobial activity against Salmonella enterica Serovar Typhi isolate AG169 harboring DNA gyrase A S83F mutation by disk diffusion method
[24] = test system: Salmonella enterica subsp. enterica; assay: Antimicrobial activity against multidrug-resistant Salmonella enterica Serovar Typhi isolate AG7 harboring DNA gyrase A S83F mutation by disk diffusion method
[25] = test system: Salmonella enterica subsp. enterica; assay: Antimicrobial activity against Salmonella enterica Serovar Typhi isolate CT144 harboring DNA gyrase A D87G mutation by disk diffusion method in presence of plasmid mediated quinolone-resistant gene qnrA and qnrS
[26] = test system: Salmonella enterica subsp. enterica; assay: Antimicrobial activity against multidrug-resistant Salmonella enterica Serovar Typhi isolate DT42 harboring DNA gyrase A S83F mutation by disk diffusion method
[27] = test system: Salmonella enterica subsp. enterica; assay: Antimicrobial activity against Salmonella enterica Serovar Typhi isolate E86 harboring DNA gyrase A S83F mutation by disk diffusion method in presence of plasmid mediated quinolone-resistant gene qnrA and qnrS
[28] = test system: Salmonella enterica subsp. enterica; assay: Antimicrobial activity against multidrug-resistant Salmonella enterica Serovar Typhi isolate AG17 harboring DNA gyrase A S83F mutation by disk diffusion method
[29] = test system: Salmonella enterica subsp. enterica; assay: Antimicrobial activity against Salmonella enterica Serovar Typhi isolate AG259 harboring DNA gyrase A S83F mutation by disk diffusion method in presence of plasmid mediated quinolone-resistant gene qnrA and qnrS
[30] = test system: Salmonella enterica subsp. enterica; assay: Antimicrobial activity against multidrug-resistant Salmonella enterica Serovar Typhi isolate DT54 harboring DNA gyrase A S83F mutation by disk diffusion method
[31] = test system: Salmonella enterica subsp. enterica; assay: Antimicrobial activity against multidrug-resistant Salmonella enterica Serovar Typhi isolate AG176 harboring DNA gyrase A S83F mutation by disk diffusion method
[32] = test system: Salmonella enterica subsp. enterica; assay: Antimicrobial activity against multidrug-resistant Salmonella enterica Serovar Typhi isolate AG5 harboring DNA gyrase A S83F mutation by disk diffusion method
[33] = test system: Salmonella enterica subsp. enterica; assay: Antimicrobial activity against multidrug-resistant Salmonella enterica Serovar Typhi isolate CT61 harboring DNA gyrase A S83F mutation by disk diffusion method in presence of plasmid mediated quinolone-resistant gene qnrA and qnrS
[34] = test system: Salmonella enterica subsp. enterica; assay: Antimicrobial activity against multidrug-resistant Salmonella enterica Serovar Typhi isolate AG152 harboring DNA gyrase A S83F and D87G mutation by disk diffusion method in presence of plasmid mediated quinolone-resistant gene qnrA and qnrS
[35] = test system: Salmonella enterica subsp. enterica; assay: Antimicrobial activity against Salmonella enterica Serovar Typhi isolate CT142 harboring DNA gyrase A S83F mutation by disk diffusion method in presence of plasmid mediated quinolone-resistant gene qnrA and qnrS
[36] = test system: Salmonella enterica subsp. enterica; assay: Antimicrobial activity against multidrug-resistant Salmonella enterica Serovar Typhi isolate AG16 harboring DNA gyrase A S83F mutation by disk diffusion method
[37] = test system: Salmonella enterica subsp. enterica; assay: Antimicrobial activity against multidrug-resistant Salmonella enterica Serovar Typhi isolate nar 102 harboring DNA gyrase A S83F mutation by disk diffusion method in presence of plasmid mediated quinolone-resistant gene qnrA and qnrS
[38] = test system: Salmonella enterica subsp. enterica; assay: Antimicrobial activity against multidrug-resistant Salmonella enterica Serovar Typhi isolate B111 harboring DNA gyrase A S83Y mutation by disk diffusion method in presence of plasmid mediated quinolone-resistant gene qnrA and qnrS
[39] = test system: Salmonella enterica subsp. enterica; assay: Antimicrobial activity against multidrug-resistant Salmonella enterica Serovar Typhi isolate AG8 harboring DNA gyrase A S83F mutation by disk diffusion method
[40] = test system: Salmonella enterica subsp. enterica; assay: Antimicrobial activity against Salmonella enterica Serovar Typhi isolate AG258 harboring DNA gyrase A S83F mutation by disk diffusion method in presence of plasmid mediated quinolone-resistant gene qnrA and qnrS

SMILES | MIC [1] [µg/mL] | MIC [2] [µg/mL] | MIC [3] [µg/mL] | MIC [4] [µg/mL] | MIC [5] [µg/mL] | MIC [6] [µg/mL] | MIC [7] [µg/mL] | MIC [8] [µg/mL] | MIC [9] [µg/mL] | MIC [10] [µg/mL] | MIC [11] [µg/mL] | MIC [12] [µg/mL] | MIC [13] [µg/mL] | MIC [14] [µg/mL] | MIC [15] [µg/mL] | MIC [16] [µg/mL] | MIC [17] [µg/mL] | MIC [18] [µg/mL] | MIC [19] [µg/mL] | MIC [20] [µg/mL] | other results
CC1COc2c(N3CCN(C)CC3)c(F)cc3c(=O)c(C(=O)O)cn1c23 (stereo not given) [OFLOXACIN] | 1 (≈ 2.77 µM) | 0.5 | 1 (≈ 2.77 µM) | 1 | 1 (≈ 2.77 µM) | 1 (≈ 2.77 µM) | 1 (≈ 2.77 µM) | 1 (≈ 2.77 µM) | 1 (≈ 2.77 µM) | 0.5 | 2 | 0.5 | 2 (≈ 5.53 µM) | 1 | 0.5 (≈ 1.38 µM) | 1 (≈ 2.77 µM) | 1 (≈ 2.77 µM) | 0.5 | 1 (≈ 2.77 µM) | 2 (≈ 5.53 µM) | MIC [21]: 1 µg/mL; MIC [22]: 1 µg/mL (≈ 2.77 µM); MIC [23]: 1 µg/mL (≈ 2.77 µM); MIC [24]: 1.5 µg/mL (≈ 4.15 µM); MIC [25]: 1 µg/mL; MIC [26]: 1 µg/mL (≈ 2.77 µM); MIC [27]: 0.5 µg/mL; MIC [28]: 1.5 µg/mL (≈ 4.15 µM); MIC [29]: 1.5 µg/mL; MIC [30]: 1 µg/mL (≈ 2.77 µM); MIC [31]: 0.75 µg/mL (≈ 2.08 µM); MIC [32]: 1 µg/mL (≈ 2.77 µM); MIC [33]: 1 µg/mL; MIC [34]: 3 µg/mL; MIC [35]: 1 µg/mL; MIC [36]: 1.5 µg/mL (≈ 4.15 µM); MIC [37]: 1 µg/mL; MIC [38]: 0.5 µg/mL; MIC [39]: 1.5 µg/mL (≈ 4.15 µM); MIC [40]: 1.5 µg/mL
COc1c(N2CCNC(C)C2)c(F)cc2c(=O)c(C(=O)O)cn(C3CC3)c12 (stereo not given) [GATIFLOXACIN] | 0.125 (≈ 0.333 µM) | 0.19 | 0.125 (≈ 0.333 µM) | 0.094 | 0.13 (≈ 0.346 µM) | 0.125 (≈ 0.333 µM) | 0.13 (≈ 0.346 µM) | 0.19 (≈ 0.506 µM) | 0.125 (≈ 0.333 µM) | 0.094 | 0.094 | 0.19 | 0.25 (≈ 0.666 µM) | 0.125 | 0.125 (≈ 0.333 µM) | 0.125 (≈ 0.333 µM) | 0.125 (≈ 0.333 µM) | 0.19 | 0.094 (≈ 0.25 µM) | 0.25 (≈ 0.666 µM) | MIC [21]: 0.125 µg/mL; MIC [22]: 0.19 µg/mL (≈ 0.506 µM); MIC [23]: 0.13 µg/mL (≈ 0.346 µM); MIC [24]: 0.19 µg/mL (≈ 0.506 µM); MIC [25]: 0.094 µg/mL; MIC [26]: 0.125 µg/mL (≈ 0.333 µM); MIC [27]: 0.19 µg/mL; MIC [28]: 0.19 µg/mL (≈ 0.506 µM); MIC [29]: 0.13 µg/mL; MIC [30]: 0.125 µg/mL (≈ 0.333 µM); MIC [31]: 0.09 µg/mL (≈ 0.24 µM); MIC [32]: 0.25 µg/mL (≈ 0.666 µM); MIC [33]: 0.064 µg/mL; MIC [34]: 0.25 µg/mL; MIC [35]: 0.125 µg/mL; MIC [36]: 0.13 µg/mL (≈ 0.346 µM); MIC [37]: 0.094 µg/mL; MIC [38]: 0.19 µg/mL; MIC [39]: 0.19 µg/mL (≈ 0.506 µM); MIC [40]: 0.19 µg/mL
